Read-outs that look alike come from different tables or passages of the source.
What was measured:
PKC [1] = details: Table 1, bryologs; read-out: PKC Affin; cited from earlier work
[2] = test system: matrix metalloproteins 1, 3, 9, 10 and 11 (MMP's); details: cited from earlier work
caspase-8 = assay: Immunoblot analysis of caspase-8 expression in dermal fibroblasts; type: cell-based, human
Experimental: (§1) Primary skin fibroblasts isolated from skin biopsies were maintained in Dulbecco's Modified Eagle Medium (DMEM) with low glucose (Invitrogen, Grand Island, N.Y.) supplemented with 10% FBS in 6-well culture dishes (37° C., 5% CO2, 90% humidity) until the cells reached 90-100% confluence. Cells were cultured in completely serum-free medium to simulate stress conditions. After culture in serum-free media for 24 hours, cells were treated with vehicle, 0.3 nM bryostatin1, or 5 nM picolog. […] Nanomolar concentrations of picolog were previously found to be effective for cellular activation (Khan et al, 2009). The condition of the cultured skin fibroblasts was monitored with an inverted cell culture microscope (Westover Digital AMID Model 2000, Westover Scientific, Bothell, Wash.), controlled by a computer and images were captured with image acquisition software (Micron 2.0.0, Westover Scientific).
(§2) Protein lysates (20 μg of protein each) were boiled in 2× Laemmli buffer for 10 min and separated using a 10% […] Tris-Glycine gel (or 4-20% gradient Tris-Glycine gel for caspase-8). […] Signal intensities of the images were recorded in the ImageQuant RT-ECL (GE Life Sciences, Piscataway, N.J.) and densitometric quantification was performed using the IMAL software (Blanchette Rockefeller Neurosciences Institute, Morgantown, W. Va.). […]

[3] = cited from earlier work
[4] = test system: human skin equivalents (HSEs); assay: Cell survival within human skin equivalents (HSEs); type: cell-based
Experimental: The Clonetics™ keratinocyte system containing normal adult human epidermal keratinocytes (NHEK) was used as source of epidermal keratinocytes (Lonza, Walkersville, Md.). Human adult epidermal keratinocyte cells were cultured in keratinocyte basal medium supplemented with appropriate growth factors (Clonetics KGM-Gold™ BulletKit™ [cat#00192060] contains one 500 ml bottle of keratinocyte basal medium-gold supplemented with bovine pituitary extract (BPE), 2 ml; hEGF, 0.5 ml; insulin, 0.5 ml; hydrocortisone, 0.5 ml; transferrin, 0.5 ml; epinephrine, 0.25 ml; GA-1000, 0.5 ml) in T25 culture flasks in an incubator at 37° C., 5% CO2, and 90% humidity. The growth medium was changed the day after seeding and every other day thereafter. Keratinocytes were used up to 18 population doublings. All cell preparations tested negative for mycoplasma, bacteria, yeast, and fungi. The condition of the skin keratinocytes was monitored with an inverted cell culture microscope (Westover Digital AMID Model 2000, Westover Scientific), controlled by a computer and images were captured using image acquisition software (Micron 2.0.0, Westover Scientific).
HSEs have been used commercially as clinical skin substitutes (Orcel® from FortiCell Bioscience, Englewood Cliffs, N.J.; FDA approved in 2001/2008; Apligraf® from Genzyme Tissue Repair Corporation, Cambridge, Mass., FDA approved in 2007) and as in vitro models for skin biochemical tests and toxicity tests (Mertsching et al, 2008; Zhang and Michniak-Kohn, 2012). We engineered an HSE composed of both epidermal and dermal layers; keratinocytes and fibroblasts were utilized to prepare the bilayer structures (Shevchenko et al, 2010). Dermal fibroblasts were cultured on a 6-well collagen-coated surface (Biocoat Cell Environment, Becton Dickinson, Bedford, UK) or BD BIOCOAT™ plates (BD Biosciences, San Jose, Calif.). Fibroblast cells were maintained in DMEM with low glucose (Invitrogen) supplemented with 10% FBS, and were grown to 100% confluence. Culture medium was removed and the cells were washed three times with DMEM (without serum) to remove all growth factors. Previously cultured epidermal keratinocytes were added to the fibroblasts as the second layer (FIG. 1). […] The condition of the HSEs was monitored with an inverted cell culture microscope (Westover Digital AMID Model 2000, Westover Scientific), controlled by a computer and images were captured via image acquisition software (Micron 2.0.0, Westover Scientific).

Erk1/2 [5] = assay: Immunoblot analysis of Erk activation in serum-deprived fibroblasts; type: cell-based, human
Experimental: as §1, §2

human skin fibroblasts [6] = assay: Protection of human skin fibroblasts under serum starvation (microscopy); type: cell-based; details: for viability and cellular integrity, with or without Erk inhibitor: serum deprived culture 5 days
Experimental: Skin fibroblast samples AG09555 (isolated and banked from a healthy person) and AG04560 (isolated and banked from a healthy person; Aging Cell Culture Repository of the National Institute on Aging) were obtained from the Coriell Institute for Medical Research (Camden, N.J.). Fresh fibroblasts were isolated from a skin punch biopsy (2-3 mm, upper arm) from a healthy subject (0078F45). The skin biopsy was conducted by qualified personnel under the supervision of Dr. Shirley Neitch with IRB approval of Marshall University (Huntington, W. Va.). All subjects signed informed consent forms under Marshal University rules and regulations. The method for isolating fibroblasts from skin biopsies was similar to the method previously described (Zhao et al, 2002; Khan and Alkon, 2006).
as §1

[7] = cited from earlier work; remark: listed apart in the source
PKC [8] = details: cited from earlier work
PKC [9] = details: [3H] phorbol dibutyrate competition; cited from earlier work
[10] = test system: squamous cell carcinoma and melanoma; details: used topically; cited from earlier work
NCI 60 cell line screen = details: cited from earlier work
Erk1/2 [11] = details: RasGRP3-dependent manner; cited from earlier work
human skin fibroblasts [12] = assay: Cell viability test by MTT assay; type: cell-based; details: 5 nM, serum starvation 15 days, versus untreated cells
Experimental: as §1
Cell viability assay was conducted by measuring 3-(4,5-dimethylthiazol-2-yl)-2,5-diphenyltetrazolium (MTT) bromide dye absorbance. After treatment, cells were labeled with MTT and dissolved by adding SDS-HCl solution to each well and mixing thoroughly with a pipette tip. Absorbance was read at 570 nm using a microplate reader. Data were presented in terms of relative cell viability.

protein kinase C = details: (−)-enantiomer; cited from earlier work

Compound: CCCCCCCC(=O)O[C@H]1/C(=C/C(=O)OC)C[C@H]2C[C@H](CO)OC(=O)C[C@H](O)C[C@@H]3CCC[C@H](C[C@@H]4CCO[C@H](/C=C/C(C)(C)[C@]1(O)O2)O4)O3 [Analog 1]
- Ki (PKC [1]): 0.25 nM

Compound: CCC/C=C/C=C/C(=O)O[C@H]1/C(=C/C(=O)OC)C[C@H]2C[C@H]([C@@H](C)O)OC(=O)C[C@H](O)C[C@@H]3C[C@H](OC(C)=O)C(C)(C)C(O)(C[C@@H]4C/C(=C/C(=O)OC)C[C@H](/C=C/C(C)(C)[C@]1(O)O2)O4)O3 [Bryostatin-1]
- production of matrix metalloproteins 1, 3, 9, 10 and 11 [2]: inhibits the production
- caspase-8 expression levels, time course (caspase-8; after 3 days of treatment): greatest decrease
- caspase-8 expression levels in cell lysate (caspase-8; treated versus control fibroblasts): reduced expression levels of caspase-8
- toxicity ([3]; 20 μg/week): no toxicity
- adverse effect ([3]; more than 35 μg/week): may be associated with muscle pain
- protective effect in HSEs over time ([4]; 9 days versus 12 days in culture): decreases as a function of time
- fibroblast survival and viability in HSEs versus untreated ([4]; single dose and two dose treated HSEs): significantly greater
- fibroblast cell death in HSEs ([4]; single treatment 0.3 nM, versus untreated HSEs): showed fewer dead fibroblast cells overall
- survival of fibroblast cells in HSEs, two doses versus single dose ([4]; two doses (0.3 nm) versus single 0.3 nM dose): greater than fibroblasts in HSEs receiving a single 0.3 nM dose
- activation of Erk1/2 (p-Erk/Erk) (Erk1/2 [5]; 0.3 nM, serum-free conditions): induced activation of Erk1/2
- cellular integrity of freshly isolated fibroblasts (human skin fibroblasts [6]; 0.3 nM, 5 days serum-free, 6-well plates): healthy and appear to be normal
- percentage of viable fibroblasts (human skin fibroblasts [6]; 0.3 nM, 5 days serum-free, treated versus control group): lower percentage of viable fibroblast in the control group
- loss of dermal fibroblast cells (human skin fibroblasts [6]; 0.3 nM, 15 days serum free culture): no significant loss of dermal fibroblast cells
- structural integrity and number of viable cells (human skin fibroblasts [6]; 0.3 nM, 35 days serum free culture, versus control group): greater structural integrity and a higher number of live, viable cells
- cellular integrity of collagen matrix supported fibroblasts (human skin fibroblasts [6]; 25 days serum-starved): maintains the cellular integrity
- viability and cellular integrity, with or without Erk inhibitor (human skin fibroblasts [6]): showed the greatest viability and good cellular integrity
- survival of banked skin fibroblasts (human skin fibroblasts [6]; sub-nanomolar amounts, 20 days serum starved): prevented the death of human skin fibroblasts

Compound: CCC/C=C/C=C/C(=O)O[C@H]1/C(=C/C(=O)OC)C[C@H]2C[C@H]([C@@H](C)O)OC(=O)C[C@H](O)C[C@@H]3C[C@H](OC(C)=O)C(C)(C)[C@](O)(C[C@@H]4C/C(=C/C(=O)OC)C[C@H](/C=C/C(C)(C)[C@]1(O)O2)O4)O3 [Bryostatin-1]
- time detectable in the blood ([7]; after a single injection): 14 days
- half-life (t1/2) in the blood stream ([7]; blood): 1 h
- crossing of the blood-brain barrier ([7]; in vivo): crosses the blood-brain barrier
- share of initial dose in the blood ([7]; intravenous injection, at 100 hrs): 1%

Compound: CCC1CC1CC1CC1CC1CC1CC1CC1CC1CC1CC1CC1CCC(=O)OC (centres unmarked) [DHA-CP6, cyclopropanated docosahexaenoic acid methyl ester]
- effective concentration (PKC [8]): 10 nM

Compound: CC1=C[C@]23C(=O)[C@@H](C=C(COC(=O)c4ccccc4)[C@@H](O)[C@]2(O)[C@H]1OC(=O)c1ccccc1)[C@H]1[C@@H](C[C@H]3C)C1(C)C [Ingenol 3,20-dibenzoate]
- Ki (PKC [9]): 240 nM

Compound: C/C=C(/C)C(=O)O[C@H]1C(C)=C[C@]23C(=O)[C@@H](C=C(CO)[C@@H](O)[C@]12O)[C@H]1[C@@H](C[C@H]3C)C1(C)C [Ingenol-3-angelate]
- antitumor activity [10]: exhibits antitumor activity

Compound: CC1=CC[C@H](C)C(C)(C)[C@@H]1/C=C/C(C)=C/CC[C@@]1(CO)[C@H](CCCO)/C(=C(/C)C=O)CC[C@]1(C)O [Iripallidal]
- GI50 (concentration required to inhibit growth by 50%) (NCI 60 cell line screen): micromolar to nanomolar range
- phosphorylation of Erk1/2 (Erk1/2 [11]): induces phosphorylation of Erk1/2

Compound: COc1cccc(-c2cc(=O)c3ccccc3o2)c1N [PD98059]
- effect on bryostatin-1 induced Erk activation (Erk1/2 [5]; PD98059 30 μM with bryostatin-1): significantly blocked
- viability and cellular integrity, with or without Erk inhibitor (human skin fibroblasts [6]): lowered the cell protective effects of bryostatin-1

Compound: CCCCCCCC(=O)O[C@H]1/C(=C/C(=O)OC)CC2C[C@H](CO)OC(=O)C[C@H](O)C[C@@H]3CCC[C@H](C[C@@H]4CCO[C@H](/C=C/C(C)(C)[C@]1(O)O2)O4)O3 [picolog]
- relative cell viability (MTT) (human skin fibroblasts [12]): increased the relative viability of fibroblast cells
- cell survival of human skin fibroblasts (human skin fibroblasts [6]; 5 nM, serum free, 15 days): increased cell survival

Compound: Octylindolactam V
- EC50 (protein kinase C): 29 nM

— patent US20180256537A1, “METHODS FOR SURVIVAL AND REJUVENATION OF DERMAL FIBROBLASTS USING PKC ACTIVATORS” (priority 2015, published 2018)
